This is an account of results in PubChem BioAssay AID276 (DTP/NCI, 2004).

The test system of this assay is B6C3F1 mice, Lewis lung carcinoma iv, survival T/C. The experiment in a line: NCI In Vivo Anticancer Drug Screen. Data for tumor model Lewis Lung Carcinoma (intravenous) in B6C3F1 mice. Conditions: endpoint: median survival time, higher = longer survival. Here is the method:
The antitumor activity of compounds was measured in mice bearing transplantable tumors. Survival or tumor size were measured and the results are expressed as the measurement made in the treated group (T) divided by the measurement made in the vehicle treated control group (C). The tumor model used in this assay is Lewis Lung Carcinoma (intravenous) in B6C3F1 mice

[1] abbreviates: dose: 1.0 mg/kg/injection, schedule: Q01DX009 (ip), vehicle: saline.
Where [2] appears, read: dose: 2.0 mg/kg/injection, schedule: Q01DX009 (ip), vehicle: saline.
The mark [3] stands for this setting: dose: 6.25 mg/kg/injection, schedule: Q01DX009 (ip), vehicle: saline with Tween-80.
The mark [4] stands for this setting: dose: 12.5 mg/kg/injection, schedule: Q01DX009 (ip), vehicle: saline with Tween-80.
Where [5] appears, read: dose: 25.0 mg/kg/injection, schedule: Q01DX009 (ip), vehicle: saline with Tween-80.
Where [6] appears, read: dose: 50.0 mg/kg/injection, schedule: Q01DX009 (ip), vehicle: saline with Tween-80.
Setting [7] is: dose: 0.5 mg/kg/injection, schedule: Q01DX009 (ip), vehicle: saline.

Each structure is given as a SMILES string. Several values for one entry are separate records, joined by “and”; a condition that tells them apart may be missing. Identical values can stand only once. Toxic doses and inconclusive results are not listed.

On to `Cc1cc(NS(=O)(=O)c2ccc(N=Nc3cc(N=Nc4ccc(S(=O)(=O)Nc5cc(C)nc(C)n5)cc4)c4c(NC(=O)C(Cl)Cl)cccc4c3OC(=O)C(Cl)Cl)cc2)nc(C)n1` (tested in a mixture with another compound), for which the T/C (dose: 25.0 mg/kg/injection, schedule: Q01DX009 (ip), vehicle: suspension in saline) was 105 % of control; the T/C (dose: 50.0 mg/kg/injection, schedule: Q01DX009 (ip), vehicle: suspension in saline) was 90 % of control; the T/C (dose: 100.0 mg/kg/injection, schedule: Q01DX009 (ip), vehicle: suspension in saline) was 88 % of control; the T/C (dose: 200.0 mg/kg/injection, schedule: Q01DX009 (ip), vehicle: suspension in saline) is 88 % of control.

Regarding `O=[Te]=O`, the T/C reads like this: (dose: 3.0 mg/kg/injection, schedule: Q01DX009 (ip), vehicle: suspension in saline) 121 % of control; (dose: 3.12 mg/kg/injection, schedule: Q01DX009 (ip), vehicle: saline) 102 % of control; (dose: 6.0 mg/kg/injection, schedule: Q01DX009 (ip), vehicle: suspension in saline) 101 % of control; (dose: 6.25 mg/kg/injection, schedule: Q01DX009 (ip), vehicle: saline) 100 % of control; (dose: 12.0 mg/kg/injection, schedule: Q01DX009 (ip), vehicle: suspension in saline) 101 % of control; (dose: 12.5 mg/kg/injection, schedule: Q01DX009 (ip), vehicle: saline) 106 % of control. In addition, the T/C is 106 % of control (dose: 24.0 mg/kg/injection, schedule: Q01DX009 (ip), vehicle: suspension in saline) and 115 % of control (dose: 48.0 mg/kg/injection, schedule: Q01DX009 (ip), vehicle: suspension in saline).

`Cc1c(N)nc([C@H](CC(N)=O)NC[C@H](N)C(N)=O)nc1C(=O)N[C@H](C(=O)N[C@H](C)[C@@H](O)[C@H](C)C(=O)N[C@H](C(=O)NCCc1nc(-c2nc(C(=O)NCCC[S+](C)C)cs2)cs1)[C@@H](C)O)C(OC1OC(CO)C(O)C(O)C1OC1OC(CO)C(O)C(OC(N)=O)C1O)c1cnc[nH]1` (stereo partly drawn): the T/C is, setting by setting: under setting [1], 113 % of control; under setting [2], 97 % of control and 104 % of control and 112 % of control.

As for `CC(CN1CC(=O)NC(=O)C1)N1CC(=O)NC(=O)C1` (stereo not drawn), the T/C is 109 % of control (dose: 108.0 mg/kg/injection, schedule: Q04DX003 (ip), vehicle: Klucel (hydroxypropylcellulose) (HPC)); 119 % of control (dose: 180.0 mg/kg/injection, schedule: Q04DX003 (ip), vehicle: Klucel (hydroxypropylcellulose) (HPC)); 158 % of control (dose: 300.0 mg/kg/injection, schedule: Q04DX003 (ip), vehicle: Klucel (hydroxypropylcellulose) (HPC)).

`OCCO`: the T/C reads like this: (dose: 0.12 % in 0.5 ml injection vol, schedule: Q01DX009 (ip), vehicle: water) 107 % of control; (dose: 0.25 % in 0.5 ml injection vol, schedule: Q01DX009 (ip), vehicle: water) 109 % of control; (dose: 0.5 % in 0.5 ml injection vol, schedule: Q01DX009 (ip), vehicle: water) 95 % of control; (dose: 1.0 % in 0.5 ml injection vol, schedule: Q01DX009 (ip), vehicle: water) 99 % of control; (dose: 2.0 % in 0.5 ml injection vol, schedule: Q01DX009 (ip), vehicle: water) 97 % of control; (dose: 4.0 % in 0.5 ml injection vol, schedule: Q01DX009 (ip), vehicle: water) 99 % of control.

For the compound `CNC(=O)n1c(N)nc(-c2ccccc2)c1-c1ccccc1`, the T/C under setting [3] was 102 % of control, the T/C under setting [4] was 103 % of control, the T/C under setting [5] was 103 % of control and the T/C under setting [6] is 102 % of control.

Regarding `C/C=C(\C)c1cc(=O)c2c(C)cc3c(c2o1)C(=O)c1c(O)c(C2CC(C)(N(C)C)C(OC(C)=O)C(C)O2)cc(C2CC(N(C)C)C(O)C(C)O2)c1C3=O` (stereo not drawn), the T/C runs as follows: (dose: 0.15 mg/kg/injection, schedule: Q01DX009 (ip), vehicle: suspension in saline) 101 % of control; (dose: 0.31 mg/kg/injection, schedule: Q01DX009 (ip), vehicle: suspension in saline) 103 % of control; (dose: 0.62 mg/kg/injection, schedule: Q01DX009 (ip), vehicle: suspension in saline) 97 % of control; (dose: 1.25 mg/kg/injection, schedule: Q01DX009 (ip), vehicle: suspension in saline) 107 % of control; (dose: 2.5 mg/kg/injection, schedule: Q01DX009 (ip), vehicle: suspension in saline) 111 % of control; (dose: 5.0 mg/kg/injection, schedule: Q01DX009 (ip), vehicle: suspension in saline) 106 % of control.

With `CCCCCCCCCCCCN1C(C)=CS/C1=C\C=C\c1scc(C)[n+]1CCCCCCCCCCCC`, the T/C (dose: 1.56 mg/kg/injection, schedule: Q01DX009 (ip), vehicle: saline with Tween-80) was 90 % of control.

On to `O=C(O)c1cc(Cc2ccc(O)c(C(=O)O)c2)ccc1O` (tested in a mixture with another compound), for which the T/C runs as follows: (dose: 6.25 mg/kg/injection, schedule: Q01DX009 (ip), vehicle: Klucel (hydroxypropylcellulose) (HPC)) 107 % of control; (dose: 12.5 mg/kg/injection, schedule: Q01DX009 (ip), vehicle: Klucel (hydroxypropylcellulose) (HPC)) 97 % of control; (dose: 25.0 mg/kg/injection, schedule: Q01DX009 (ip), vehicle: Klucel (hydroxypropylcellulose) (HPC)) 101 % of control; (dose: 50.0 mg/kg/injection, schedule: Q01DX009 (ip), vehicle: Klucel (hydroxypropylcellulose) (HPC)) 97 % of control; (dose: 100.0 mg/kg/injection, schedule: Q01DX009 (ip), vehicle: Klucel (hydroxypropylcellulose) (HPC)) 95 % of control.

Take `O=[N+]([O-])c1ccc(-n2[nH]nnc2=S)cc1`: the T/C by setting is: under setting [4], 101 % of control; under setting [5], 96 % of control; under setting [6], 103 % of control; (dose: 100.0 mg/kg/injection, schedule: Q01DX009 (ip), vehicle: saline with Tween-80) 95 % of control; (dose: 200.0 mg/kg/injection, schedule: Q01DX009 (ip), vehicle: saline with Tween-80) 94 % of control.

In the case of `C=C1C(=O)OC2/C=C(\C)CC(O)/C=C(/CO)CC(OC(=O)/C(C)=C/C)C12` (stereo not drawn), the T/C by setting is: (dose: 15.0 mg/kg/injection, schedule: Q01DX009 (ip), vehicle: saline with Tween-80) 91 % of control; (dose: 30.0 mg/kg/injection, schedule: Q01DX009 (ip), vehicle: saline with Tween-80) 101 % of control.

Consider `N[C@@H](Cc1ccc(N(CCCl)CCCl)cc1)C(=O)O`, for which the T/C was 102 % of control under setting [7], 95 % of control under setting [1] and 99 % of control under setting [2].

Regarding `Nc1cc2c3c(cccc3c1)C(=O)N(CCN1CCCC1)C2=O`, the T/C runs as follows: (dose: 3.12 mg/kg/injection, schedule: Q01DX009 (ip), vehicle: saline with Tween-80) 105 % of control; under setting [3], 105 % of control; under setting [4], 105 % of control; under setting [5], 109 % of control.

As to `CCc1nc(N)nc(N)c1-c1ccc(Cl)c(N=[N+]=[N-])c1`, the T/C (dose: 12.5 mg/kg/injection, schedule: Q01DX009 (ip), vehicle: distilled water + Tween-80) is 97 % of control; the T/C (dose: 25.0 mg/kg/injection, schedule: Q01DX009 (ip), vehicle: distilled water + Tween-80) is 100 % of control; the T/C (dose: 50.0 mg/kg/injection, schedule: Q01DX009 (ip), vehicle: distilled water + Tween-80) was 100 % of control; the T/C (dose: 100.0 mg/kg/injection, schedule: Q01DX009 (ip), vehicle: distilled water + Tween-80) is 106 % of control and 110 % of control; the T/C (dose: 200.0 mg/kg/injection, schedule: Q01DX009 (ip), vehicle: distilled water + Tween-80) is 119 % of control.

For `O=C1C(NCC(O)CO)=C(N2CC2)C(=O)C(NCC(O)CO)=C1N1CC1` (stereo not drawn), the T/C reads like this: under setting [7], 100 % of control; under setting [1], 98 % of control; under setting [2], 108 % of control; (dose: 4.0 mg/kg/injection, schedule: Q01DX009 (ip), vehicle: saline) 116 % of control.

As for `CCC12C[N+]3([O-])CCc4c([nH]c5ccccc45)C(C(=O)OC)(c4cc5c(cc4OC)N(C)C4C(O)(C(=O)OC)C(OC(C)=O)C6(CC)C=CCN7CCC54C76)CC(C3)C1O2` (stereo not drawn), the T/C was 93 % of control (dose: 0.62 mg/kg/injection, schedule: Q01DX009 (ip), vehicle: water); 94 % of control (dose: 1.25 mg/kg/injection, schedule: Q01DX009 (ip), vehicle: water); 97 % of control (dose: 2.5 mg/kg/injection, schedule: Q01DX009 (ip), vehicle: water); 95 % of control (dose: 5.0 mg/kg/injection, schedule: Q01DX009 (ip), vehicle: water); 98 % of control (dose: 10.0 mg/kg/injection, schedule: Q01DX009 (ip), vehicle: water); 101 % of control (dose: 20.0 mg/kg/injection, schedule: Q01DX009 (ip), vehicle: water).
